# Legend:
# [1] = target: T1, Alpha-1D adrenergic receptor (Homo sapiens, UniProt P25100)
# T1 sequence (P25100 whole entry): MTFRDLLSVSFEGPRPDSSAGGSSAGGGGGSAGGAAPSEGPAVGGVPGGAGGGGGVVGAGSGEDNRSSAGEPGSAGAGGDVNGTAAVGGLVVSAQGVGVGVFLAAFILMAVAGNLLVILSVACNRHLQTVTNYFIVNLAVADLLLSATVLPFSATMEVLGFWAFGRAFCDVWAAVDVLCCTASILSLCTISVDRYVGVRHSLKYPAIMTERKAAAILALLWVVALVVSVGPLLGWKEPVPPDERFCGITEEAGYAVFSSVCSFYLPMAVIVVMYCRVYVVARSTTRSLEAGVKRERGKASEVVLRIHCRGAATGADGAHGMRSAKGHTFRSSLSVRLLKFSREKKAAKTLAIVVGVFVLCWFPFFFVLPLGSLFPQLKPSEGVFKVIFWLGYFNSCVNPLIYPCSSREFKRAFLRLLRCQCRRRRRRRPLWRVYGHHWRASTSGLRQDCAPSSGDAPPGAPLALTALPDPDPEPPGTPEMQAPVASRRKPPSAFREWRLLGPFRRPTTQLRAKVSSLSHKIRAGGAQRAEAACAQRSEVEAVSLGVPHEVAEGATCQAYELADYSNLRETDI
# Description: Inhibition of adrenergic Alpha-1D receptor
# [2] = target: T2, D(4) dopamine receptor (Homo sapiens, UniProt P21917)
# T2 sequence (P21917 whole entry): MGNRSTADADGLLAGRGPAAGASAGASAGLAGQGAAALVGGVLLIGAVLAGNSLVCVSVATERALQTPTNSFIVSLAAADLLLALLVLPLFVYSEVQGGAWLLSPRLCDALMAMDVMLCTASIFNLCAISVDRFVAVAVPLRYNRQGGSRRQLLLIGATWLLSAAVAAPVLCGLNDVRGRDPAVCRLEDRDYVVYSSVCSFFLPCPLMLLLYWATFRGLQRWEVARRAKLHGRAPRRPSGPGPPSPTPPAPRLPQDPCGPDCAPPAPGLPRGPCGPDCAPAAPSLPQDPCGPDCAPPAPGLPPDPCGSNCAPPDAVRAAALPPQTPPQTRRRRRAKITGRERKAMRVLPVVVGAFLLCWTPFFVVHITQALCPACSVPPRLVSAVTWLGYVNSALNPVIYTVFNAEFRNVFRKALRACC
# Description: Inhibition of dopamine D4 receptor
# [3] = target: T3, Alpha-1B adrenergic receptor (Homo sapiens, UniProt P35368)
# T3 sequence (P35368 whole entry): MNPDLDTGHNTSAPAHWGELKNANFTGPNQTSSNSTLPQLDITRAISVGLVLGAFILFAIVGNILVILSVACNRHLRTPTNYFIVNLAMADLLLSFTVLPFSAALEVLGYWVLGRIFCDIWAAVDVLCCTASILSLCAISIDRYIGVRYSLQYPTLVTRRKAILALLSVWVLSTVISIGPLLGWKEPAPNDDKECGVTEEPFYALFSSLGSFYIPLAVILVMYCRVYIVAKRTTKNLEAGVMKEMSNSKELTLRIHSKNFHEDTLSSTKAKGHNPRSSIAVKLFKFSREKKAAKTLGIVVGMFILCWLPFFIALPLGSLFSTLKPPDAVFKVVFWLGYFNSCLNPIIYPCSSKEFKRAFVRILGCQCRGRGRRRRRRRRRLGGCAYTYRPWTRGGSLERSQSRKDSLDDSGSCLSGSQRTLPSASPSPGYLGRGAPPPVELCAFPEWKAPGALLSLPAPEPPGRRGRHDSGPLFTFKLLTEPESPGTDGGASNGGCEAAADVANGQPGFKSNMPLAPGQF
# Description: Inhibition of adrenergic Alpha-1B receptor
# [4] = target: 5-hydroxytryptamine receptor 7 (Homo sapiens, UniProt P34969)
# [5] = target: T4, Alpha-1A adrenergic receptor (Homo sapiens, UniProt P35348)
# T4 sequence (P35348 whole entry): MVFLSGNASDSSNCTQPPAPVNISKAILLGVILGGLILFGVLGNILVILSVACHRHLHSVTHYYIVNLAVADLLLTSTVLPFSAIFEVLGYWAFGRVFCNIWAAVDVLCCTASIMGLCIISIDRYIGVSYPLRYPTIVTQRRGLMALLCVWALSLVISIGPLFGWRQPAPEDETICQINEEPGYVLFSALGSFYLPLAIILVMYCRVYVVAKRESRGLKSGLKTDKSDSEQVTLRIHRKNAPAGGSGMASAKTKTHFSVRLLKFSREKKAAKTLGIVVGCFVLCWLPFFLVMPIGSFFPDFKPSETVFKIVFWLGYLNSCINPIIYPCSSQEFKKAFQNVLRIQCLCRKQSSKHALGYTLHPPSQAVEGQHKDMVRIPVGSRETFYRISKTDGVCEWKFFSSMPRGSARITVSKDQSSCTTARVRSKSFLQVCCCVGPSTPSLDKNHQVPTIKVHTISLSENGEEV
# Description: Inhibition of adrenergic alpha1A receptor
# [6] = target: T5, 5-hydroxytryptamine receptor 1A (Homo sapiens, UniProt P08908)
# T5 sequence (P08908 whole entry): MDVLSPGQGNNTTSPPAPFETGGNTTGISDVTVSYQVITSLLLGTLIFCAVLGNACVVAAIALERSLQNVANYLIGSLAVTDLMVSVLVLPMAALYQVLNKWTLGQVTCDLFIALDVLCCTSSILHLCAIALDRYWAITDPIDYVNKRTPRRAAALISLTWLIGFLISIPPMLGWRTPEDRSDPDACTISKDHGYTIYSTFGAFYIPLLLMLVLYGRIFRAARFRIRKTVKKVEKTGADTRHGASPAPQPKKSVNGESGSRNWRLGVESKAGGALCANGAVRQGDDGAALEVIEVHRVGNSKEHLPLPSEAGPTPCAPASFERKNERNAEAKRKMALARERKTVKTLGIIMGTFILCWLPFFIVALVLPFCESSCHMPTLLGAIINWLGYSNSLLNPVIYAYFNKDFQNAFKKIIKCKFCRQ
# [7] = target: 5-hydroxytryptamine receptor 1B (Homo sapiens, UniProt P28222)
# [8] = physchem; details: octanol/water, pH 7.4
# [9] = target: T5, 5-hydroxytryptamine receptor 1A; experiment: biochemical
# Description: Displacement of [3H]8-OH-DPAT from human cloned 5HT1A receptor expressed in HEK293 EBNA cells after 1 hr by liquid scintillation counting
# 5-hydroxytryptamine receptor 7, sequence (P34969 whole entry): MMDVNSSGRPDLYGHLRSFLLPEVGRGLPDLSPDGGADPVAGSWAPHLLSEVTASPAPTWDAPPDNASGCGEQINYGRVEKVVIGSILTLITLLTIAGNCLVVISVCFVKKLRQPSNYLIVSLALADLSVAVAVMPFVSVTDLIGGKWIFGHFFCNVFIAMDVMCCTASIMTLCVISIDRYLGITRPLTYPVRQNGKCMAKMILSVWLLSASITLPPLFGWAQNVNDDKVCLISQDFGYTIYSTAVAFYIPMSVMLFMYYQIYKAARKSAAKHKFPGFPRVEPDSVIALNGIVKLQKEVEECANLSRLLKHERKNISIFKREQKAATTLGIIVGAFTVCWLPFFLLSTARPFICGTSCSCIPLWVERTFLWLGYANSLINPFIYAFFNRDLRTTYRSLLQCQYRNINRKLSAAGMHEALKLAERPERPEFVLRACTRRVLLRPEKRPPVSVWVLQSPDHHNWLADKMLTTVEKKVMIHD
# 5-hydroxytryptamine receptor 1B, sequence (P28222 whole entry): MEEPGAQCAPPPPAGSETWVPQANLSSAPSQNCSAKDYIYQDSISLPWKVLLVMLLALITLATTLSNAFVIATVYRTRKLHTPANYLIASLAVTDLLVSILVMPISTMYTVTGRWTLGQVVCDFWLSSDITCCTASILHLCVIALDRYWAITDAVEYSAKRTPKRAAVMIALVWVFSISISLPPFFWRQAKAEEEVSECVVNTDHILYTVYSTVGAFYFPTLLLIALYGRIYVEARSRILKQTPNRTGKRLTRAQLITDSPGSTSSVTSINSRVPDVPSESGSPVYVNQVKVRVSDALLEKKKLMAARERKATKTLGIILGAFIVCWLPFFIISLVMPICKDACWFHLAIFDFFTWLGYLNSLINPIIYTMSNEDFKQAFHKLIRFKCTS
SMILES,Ki [1] [nM],Ki [2] [nM],Ki [3] [nM],Ki [4] [nM],Ki [5] [nM],Ki [6] [nM],Ki [7] [nM],logD [8],IC50 [9] [nM],Ki [9] [nM]
O=C(N(CCN1CCN(c2ccccc2O)CC1)c1ccccn1)C12C3C4C1C1C2C3C41I (stereo not drawn),181,890,25,50,176,1.4,272,4.03,1.5,0.64
O=C(C1CCCCC1)N(CCN1CCN(c2ccccc2O)CC1)c1ccccn1,,,,,,,,,0.77,0.33
O=C(N(CCN1CCN(c2ccccc2O)CC1)c1ccccn1)C12CC3CC(C1)C(I)C(C3)C2 (stereo not drawn),,,,,,,,,3.95,1.68

# Second part, the molecule after the results:
Ki [1] [nM],Ki [2] [nM],Ki [3] [nM],Ki [4] [nM],Ki [5] [nM],Ki [6] [nM],Ki [7] [nM],logD [8],IC50 [9] [nM],Ki [9] [nM],SMILES
,,,,,,,,5.04,2.15,COc1ccccc1N1CCN(CCN(C(=O)C23CC4CC(CC(I)(C4)C2)C3)c2ccccn2)CC1
,,,,,,,,2.61,1.11,COc1ccccc1N1CCN(CCN(C(=O)C23CCC(I)(CC2)CC3)c2ccccn2)CC1

# Reference: ChEMBL document CHEMBL1772973, “Design, synthesis, radiolabeling, and in vitro and in vivo evaluation of bridgehead iodinated analogues of N-{2-[4-(2-methoxyphenyl)piperazin-1-yl]ethyl}-N-(pyridin-2-yl)cyclohexanecarboxamide (WAY-100635) as potential SPECT ligands for the 5-HT1A receptor” (J Med Chem, 2011)
